# US20210024628A1, “METHODS FOR MODULATING INNATE LYMPHOID CELL ACTIVITY, ANTIBODY DRUG CONJUGATES AND USES IN THERAPY” (INSERM (INSTITUT NATIONAL DE LA SANTÉ ET DE LA RECHERCHE …, priority 2018, published 2021)
# Experiments:
# NK cells [1] = assay: In vitro splenocyte stimulation: NK cell degranulation (CD107a); type: cell-based, mice; settings: stimulation with anti-NK1.1 antibodies or PMA and ionomycine, data not shown
# Method: Splenocytes from control and GR^Ncr1-iCre mice were stimulated in vitro in complete culture medium (RPMI 10% FCS, 100 μg/ml penicillin/streptomycin, 2 mM 1-glutamine, 1 mM sodium pyruvate, and 0.01 M Hepes) with: 25 ng/ml IL-12 (eBiosciences), 25 ng/ml IL-15 (Peprotech) and 20 ng/ml IL-18 (MBL) alone or in combination, or with PMA (200 ng/ml, Sigma) and ionomycin (1 μg/ml, Sigma). For NK1.1 stimulation 96 well plates (Immulon 2HB) were coated overnight at 37° C. with 2.5 ul/well anti-NK1.1 Ab (PK136, eBiosciences) or IgG2a isotype control before cell plating. During stimulation, 250 or 500 nM corticosterone (Sigma; dissolved in ethanol) or the same volume of vehicle alone were added to the medium. Cells were stimulated at 37° C. in the presence of Golgi Stop and Golgi Plug from BD Biosciences. After 4 h of stimulation, the cells were washed and stained for FACS analysis. […]
# Single-cell suspensions were obtained from the spleen by scratching it through 70 um cell strainer, or from the liver by scratching it through 100 um cell strainer and subsequent lymphocyte isolation on a 37.5%-67.5% Percoll gradient. […] Stained samples were analyzed in a BD LSRII flow cytometer (BD Biosciences). Apoptosis was detected with the FITC Annexin V Apoptosis Detection Kit I from BD Biosciences, according to the manufacturer's protocol.
# NK cells [2] = assay: In vitro splenocyte stimulation with cytokines: PD1 expression (FACS); type: cell-based, mice
# Method: Splenocytes from control and GR^Ncr1-iCre mice were stimulated in vitro in complete culture medium (RPMI 10% FCS, 100 μg/ml penicillin/streptomycin, 2 mM 1-glutamine, 1 mM sodium pyruvate, and 0.01 M Hepes) with: 25 ng/ml IL-12 (eBiosciences), 25 ng/ml IL-15 (Peprotech) and 20 ng/ml IL-18 (MBL) alone or in combination, or with PMA (200 ng/ml, Sigma) and ionomycin (1 μg/ml, Sigma). For NK1.1 stimulation 96 well plates (Immulon 2HB) were coated overnight at 37° C. with 2.5 ul/well anti-NK1.1 Ab (PK136, eBiosciences) or IgG2a isotype control before cell plating. During stimulation, 250 or 500 nM corticosterone (Sigma; dissolved in ethanol) or the same volume of vehicle alone were added to the medium. Cells were stimulated at 37° C. in the presence of Golgi Stop and Golgi Plug from BD Biosciences. After 4 h of stimulation, the cells were washed and stained for FACS analysis. For CD107a staining, 2.5 ul/well of anti-CD107a-FITC antibody (1D4B, BD Biosciences) were added during stimulation.
# Single-cell suspensions were obtained from the spleen by scratching it through 70 um cell strainer, or from the liver by scratching it through 100 um cell strainer and subsequent lymphocyte isolation on a 37.5%-67.5% Percoll gradient. For isolation of small intestine lamina propria cells, intestines were cut longitudinally, then transversally in 2-3 cm pieces, thoroughly rinsed with PBS, and shaken for 30 minutes in PBS containing 10% FBS, 15 mM Hepes and 5 mM EDTA to remove intraepithelial and epithelial cells. Intestines were then digested with collagenase VIII (300UI/mL; Sigma) in complete RPMI for 45 minutes at 37° C. under agitation, and lamina propria lymphocytes were isolated on a 40%-100% Percoll gradient. Cells were incubated with the Fc blocking antibody (2.4G2) and with a fixable blue dead-cell stain kit (Invitrogen). Surface molecules were stained with antibodies against: CD45.2 (104), CD3 (145-2C11), CD19 (1D3), NK1.1 (PK136), CD49a (Ha31/8), CD11b (M1/70), MHCII (M5/114.15.2), TCRb (H57-597), PD1 (J43, and Hamster IgG2 isotype control), PDL1 (MIHS) from BD Biosciences; NKp46 (29A1.4), CD49b (DX5), F4/80 (BM8), Ly49H (3D10) from eBioscience; CD11c (N418), PD1 (RMP1-30, and Rat IgG2b isotype control), PDL2 (TY25) and Ly6G (1A8) from Biolegend. For intracellular staining, cells were fixed and permeabilized with an intracellular staining kit (eBioscience), and the following antibodies were used: anti-IFN-(XMG1.2) from Biolegend; anti-granzyme B (GB11), anti-Rort (Q31-378), anti-IL17 (TC11-18H10), anti-Ki67 (B56) from BD Biosciences, anti-IL-22 (JOP eBioscience, coupled to Alexa Fluor 647 with an antibody labeling kit from Life Technologies), anti-GR XP rabbit mAb (D8H2) and rabbit mAb IgG XP (DA1E) from Cell Signaling Technology. Stained samples were analyzed in a BD LSRII flow cytometer (BD Biosciences). Apoptosis was detected with the FITC Annexin V Apoptosis Detection Kit I from BD Biosciences, according to the manufacturer's protocol.
structure (smiles),measurement,setting,value
"C[C@]12C[C@H](O)[C@H]3[C@@H](CCC4=CC(=O)CC[C@@]43C)[C@@H]1CC[C@@H]2C(=O)CO [Corticosterone, (11β)-11,21-Dihydroxypregn-4-ene-3,20-dione]",ability of NK cells to degranulate (measured by their CD107a expression),NK cells [1],did not affect
same,PD1 expression on NK cells,"NK cells [2]; corticosterone (250 or 500 nM) with the combination IL-15+IL-18, splenocytes, 4 h","able to induce PD1 expression on NK cells, in a dose-dependent manner"
same,PD1 expression on NK cells,"NK cells [2]; corticosterone alone, splenocytes, 4 h at 37° C.",not able to induce PD1 expression
same,PD1 induction on T cells,NK cells [2]; corticosterone in addition to IL-15 and IL-18,not observed
same,PD1 induction on NK cells from GR^Ncr1-iCre mice,"NK cells [2]; corticosterone in addition to IL-15 and IL-18, GR-deficient NK cells",not observed
same,PD1 expression on NK cells,"NK cells [2]; corticosterone in the presence of IL-15, splenocytes, 4 h",not able to induce PD1 expression
same,PD1 expression on NK cells,NK cells [2]; corticosterone with IL-15+IL-18 and addition of IL-12,abrogate this effect
